According to patent US12630544B2, “Compound, α-synuclein aggregate binder, and use thereof” (NATIONAL INSTITUTES FOR QUANTUM SCIENCE AND TECHNOLOGY, priority 2020, dated 2026):

What was measured:
[1] = tested on: tau aggregates or amyloid-β aggregates; test: In vitro fluorescence microscope measurement, middle frontal gyrus sections of AD patient brain; parameters: species or system human; settings: 30 μM compound
Excerpt: (§1) Postmortem human brains were obtained in autopsies carried out with respect to a patient with dementia with Lewy bodies (DLB) and a patient with Alzheimer's disease (AD). In a cryostat (HM560, Carl Zeiss), frozen tissue from the DLB patient was sliced into sections each having a thickness of 20 μm. Brain tissue from the AD patient was fixed in 10% neutral buffered formalin, embedded in a paraffin block, and sliced into sections each having a thickness of 6 μm.
Postfixed fresh frozen sections of amygdala tissue obtained from the brain of the DLB patient and deparaffinized sections of formalin-fixed paraffin-embedded middle frontal gyrus tissue obtained from the brain of the AD patient were used. […] After the section was mounted in a mounting medium (VECTASHIELD H-1000, Vector Laboratories), an image of a lesion-enriched area on the section was obtained with use of a fluorescence microscope (DM4000, Leica, excitation wavelength: 391 nm to 437 nm). In FIG. 1, each arrowhead indicates fluorescence from the compound binding to α-synuclein aggregates in the brain of the DLB patient, each arrow indicates fluorescence from the compound binding to amyloid-β aggregates in the brain of the AD patient, and an asterisk indicates fluorescence from the compound binding to tau aggregates in the brain of the AD patient. […]

[2] = target: T1, α-synuclein lesion (Mus musculus, UniProt O55042); test: In vivo two-photon laser scanning fluorescence microscopy of α-synuclein fibril-inoculated model mouse; settings: 50 μl DMSO solution containing 0.1% compound, i.p.; excitation 900 nm
T1 construct: from tissue; host or cells: brain of C57/BL/6 mouse inoculated in the striatum with recombinant (E. coli) mouse α-synuclein fibrils; sections or living animal
Description: First, mouse α-synuclein was expressed in and extracted from E. coli as a recombinant protein, and then incubated in vitro to form insoluble α-synuclein aggregates. The α-synuclein aggregates were then inoculated into the striatum of a mouse. […] Note that the inoculation of the α-synuclein aggregates into the striatum of the mouse was carried out in the following manner. First, hair on the head of a 9-week-old C57/BL/6 male mouse which had been anesthetized with 1.5% (v/v) isoflurane was removed, and the scalp was disinfected with isodine, followed by application of xylocaine and incision in the scalp to expose the skull. Then, a hole was drilled in the skull at a position of 0.05 mm posterior to the bregma and 2 mm lateral to the midline, and 3 μl of an α-synuclein fibril solution (mouse α-synuclein fibril (4 mg/ml) in saline) was injected into a position […] ventral to the brain surface with use of a glass pipette. The scalp was then returned and sutured.
A model mouse was anesthetized with 1.5% (v/v) isoflurane 6 or more weeks after inoculation of an α-synuclein fibril solution. Then, a cranial window was placed on the model mouse in accordance with the Seylaz-Tomita method (Tomita et al. J Cereb Blood Flow Metab 25, 858-67, 2005). Two or more weeks after the placement of the cranial window, the mouse was anesthetized with 1.5% (v/v) isoflurane, and then 50 μl of a DMSO solution containing 0.1% BF-227, PBB3, SPAL-T-05, or SPAL-T-06 was intraperitoneally administered to the mouse. Thirty minutes after the administration, the mouse was fixed under a two-photon laser fluorescence microscope, 100 μl of physiological saline containing 5 mM Sulforhodamine 101 was intraperitoneally administered to the mouse, and then intravital two-photon fluorescence imaging was carried out at an excitation wavelength of 900 nm. Detection wavelengths for BF-227, PBB3, SPAL-T-05, and SPAL-T-06 were set at 500 nm to 550 nm, and a detection wavelength for Sulforhodamine 101 was set at 573 nm to 648 nm. In FIG. 4, each arrowhead indicates a blood vessel, and each arrow indicates fluorescence from the compound binding to an α-synuclein lesion.

[3] = target: T2, α-synuclein aggregates (Homo sapiens, UniProt P37840); test: In vitro fluorescence microscope measurement, amygdala sections of DLB patient brain; parameters: α-synuclein aggregates formed in the brain of the DLB patient; from tissue; host or cells: post-mortem human brain: amygdala of DLB patient (sections or homogenate); cerebellum of MSA patient; settings: 30 μM test compound
Excerpt: as §1
Postfixed fresh frozen sections of amygdala tissue obtained from the brain of the DLB patient and deparaffinized sections of formalin-fixed paraffin-embedded middle frontal gyrus tissue obtained from the brain of the AD patient were used. Each brain section and a 30 μM test compound were incubated in a 50% ethanol solution at room temperature for 30 minutes. Thereafter, the section was washed with a 50% ethanol solution for 5 minutes and with ultrapure water for 3 minutes. This washing was carried out twice. After the section was mounted in a mounting medium (VECTASHIELD H-1000, Vector Laboratories), an image of a lesion-enriched area on the section was obtained with use of a fluorescence microscope (DM4000, Leica, excitation wavelength: 391 nm to 437 nm). In FIG. 1, each arrowhead indicates fluorescence from the compound binding to α-synuclein aggregates in the brain of the DLB patient, each arrow indicates fluorescence from the compound binding to amyloid-β aggregates in the brain of the AD patient, and an asterisk indicates fluorescence from the compound binding to tau aggregates in the brain of the AD patient. The fluorescence intensities of lesion-enriched areas and lesion-free areas (background) were quantified with use of analysis software (Image J). Note that SPAL-T-05 and SPAL-T-06 were each used as the test compound. Note also that BF-227 (2-(2-[2-dimethylaminothiazol-5-yl]ethenyl)-6-(2-[fluoro]ethoxy)benzoxazole (catalog No.: NP039-0)) and PBB3 (2-((1E,3E)-4-(6-(methylamino)pyridin-3-yl)buta-1,3-dienyl)benzo[d]thiazol-6-ol) (catalog No.: NP039-0), each available from NARD INSTITUTE, LTD., were each used as a control compound.

[4] = target: T2, α-synuclein aggregates; settings: background statement, cited from earlier work

| SMILES | binding to aggregates in the brain of the AD patient (fluorescence) [1] | detection of / binding to α-synuclein lesions in living mouse brain (two-photon fluorescence) [2] | binding to α-synuclein aggregates formed in the brain of the DLB patient (fluorescence) ([3]; 50% ethanol, room temperature, 30 minutes, amygdala sections) | binding selectivity: α-synuclein aggregates (DLB brain) versus tau aggregates or amyloid-β aggregates (AD brain) ([3]; fluorescence of lesion-enriched vs lesion-free areas) | binding selectivity with respect to the α-synuclein aggregates ([4]; binds to amyloid-β aggregates) | binding affinity with respect to the α-synuclein aggregates [4] |
| --- | --- | --- | --- | --- | --- | --- |
| CN(C)c1ncc(C=Cc2nc3ccc(OCCF)cc3o2)s1 [BF-227, 2-(2-[2-dimethylaminothiazol-5-yl]ethenyl)-6-(2-[fluoro]ethoxy)benzoxazole, reference compound] | mainly bound to the amyloid-β aggregates | no α-synuclein lesion was detected | weaker than that of each of SPAL-T-06 and SPAL-T-05 | low binding selectivity | – | – |
| CNc1ccc(/C=C/C=C/c2nc3ccc(O)cc3s2)cn1 [PBB3, 2-((1E,3E)-4-(6-(methylamino)pyridin-3-yl)buta-1,3-dienyl)benzo[d]thiazol-6-ol, reference compound] | – | no α-synuclein lesion was detected | – | – | – | – |
| CN(C)c1ncc(C=Cc2nc3ccc(OCCF)cc3o2)s1 [[^11C]BF-227] | – | – | – | – | low binding selectivity | insufficient binding affinity |
